Assays:
[1] = target: 20-HETE-Producing Enzyme derived from Human Renal Microsome; experiment: Inhibitory action to 20-HETE-producing enzyme derived from human renal microsome; format: biochemical; settings: human renal microsome fraction, tritium-arachidonic acid substrate, NADPH, 37° C., 1.5 hours, pH 7.4; read-out: IC50 (inhibition of 20-HETE production)
Procedure: Inhibitory Action to 20-HETE-Producing Enzyme derived from Human Renal Microsome
With regard to the compounds listed in the above table, their inhibitory actions to 20-HETE production were tested.
This test was carried out in accordance with a method mentioned in J. Pharmacol. Exp. Ther., volume 268, page 474 (1994).
A solution of the test compound adjusted to 1 μM using DMSO was added to a 50 mM of 3-morpholinopropanesulfonic acid buffer (MOPS) (pH 7.4) containing 5 mM of magnesium chloride and 1 mM of sodium ethylenediaminetetraacetate (EDTA), then human renal microsome fraction (Human Cell Culture Center, Anatomic Gift Foundation), [5,6,8,9,11,12,15]tritium-arachidonic acid and NADPH were added thereto as an enzymatic source, a substrate and a coenzyme, respectively and reaction was carried out at 37° C. for 1.5 hours. Formic acid was added to the reaction solution to stop the reaction and then acetonitrile was added thereto (final concentration: 50%). Amount of 20-HETE produced thereby was measured using a high performance liquid chromatography equipped with a radioactive substance detector having an ODS column (Biosil C18; manufactured by Biorad).
Amount of 20-HETE produced when no compound was added was defined as 100% and the concentration of the compound when production of 20-HETE was inhibited to an extent of 50% upon addition of a compound (IC50 value) was calculated.

SMILES | melting point | IC50 [1]
O/N=C/Nc1ccc(N2CCSCC2)cc1 [Compound 1] | 138 to 141 °C | –
O/N=C/Nc1ccc(N2CCSCC2)c(F)c1 [Compound 2] | 141 to 142 °C (dec.) | 3.2 nM
O/N=C/Nc1ccc(N2CCSCC2)c(Cl)c1 [Compound 3, N-hydroxyl-N′-(3-chloro-4-thiomorpholinophenyl)formamidine] | 137 to 138.5 °C | 3.6 nM
O/N=C/Nc1ccc(N2CCSCC2)c(Br)c1 [Compound 4] | 149 to 151 °C | 2.3 nM
CC1CN(c2ccc(N/C=N/O)cc2Cl)CC(C)O1 (stereo not drawn) [Compound 9] | 163 to 164 °C (dec.) | 46.9 nM
O/N=C/Nc1ccc(N2CC=CC2)c(Cl)c1 [Compound 11] | 118 to 121 °C | 12.5 nM
O/N=C/Nc1ccc(N2CC=CC2)c(Br)c1 [Compound 12] | – | 16 nM
O/N=C/Nc1ccc(N2CC=CCC2)c(F)c1 [Compound 15] | 129 to 130 °C | 3.9 nM
O/N=C/Nc1ccc(N2CC=CCC2)c(Cl)c1 [Compound 16] | 135 to 137.5 °C | 2.2 nM
O/N=C/Nc1ccc(N2CC=CCC2)c(C(F)(F)F)c1 [Compound 19] | 136.5 to 138 °C | 18 nM
Cc1cc(N2CC=CCC2)ccc1N/C=N/O [Compound 20] | 146 to 149 °C | 663 nM
O/N=C/Nc1ccc(N2CCCCCC2)c(F)c1 [Compound 22] | 112 to 115 °C | 2.1 nM
O/N=C/Nc1ccc(N2CCCCCC2)c(Cl)c1 [Compound 23] | 113 to 114 °C | 2.2 nM
O/N=C/Nc1ccc(N2CCCCCC2)c(Br)c1 [Compound 24] | 103.5 to 105 °C | 4.2 nM
O/N=C/Nc1ccc(N2CCCCCC2)c(C(F)(F)F)c1 [Compound 26] | 127 to 128.5 °C | 25.2 nM
O/N=C/Nc1ccc(N2CCCCCCC2)cc1 [Compound 27] | 170 to 173 °C | 10.2 nM
O/N=C/Nc1ccc(N2CCCCCCC2)c(F)c1 [Compound 28] | 137 to 139 °C | 5.7 nM
O/N=C/Nc1ccc(N2CCC3(CC2)OCCO3)cc1 [Compound 33] | 157 to 158.5 °C | 3.6 nM
O/N=C/Nc1ccc(N2CCC3(CC2)OCCO3)c(F)c1 [Compound 34] | 165 to 167 °C | 7 nM
O/N=C/Nc1ccc(N2CCC3(CC2)OCCO3)c(Cl)c1 [Compound 35] | 174 to 176 °C | 5 nM
Cc1cc(N2CCC3(CC2)OCCO3)ccc1N/C=N/O [Compound 39] | 147 to 150 °C | 4.3 nM
Cc1cc(N2CCCC3CCCCC32)ccc1N/C=N/O (stereo not drawn) [Compound 46] | 154 to 156 °C | 33 nM

SMILES | melting point | IC50 [1]
O/N=C/Nc1ccc(N2CCC(O)CC2)c(F)c1 [Compound 48] | 159 to 161 °C | 3.2 nM
O/N=C/Nc1ccc(N2CCC(O)CC2)c(Cl)c1 [Compound 49] | 93 to 97 °C | 3.4 nM
OCCC1CCN(c2ccc(N/C=N/O)cc2)CC1 [Compound 54] | 186 to 189 °C | 34.7 nM
OCCC1CCN(c2ccc(N/C=N/O)cc2F)CC1 [Compound 55] | 172 to 176 °C | 34.2 nM
Cc1cc(N2CCC(CCO)CC2)ccc1N/C=N/O [Compound 58] | 152 to 154 °C | 31.2 nM
CCN(CC)C(=O)C1CCCN(c2ccc(N/C=N/O)cc2C(F)(F)F)C1 (stereo not drawn) [Compound 64] | 150 to 156 °C | 19.4 nM
CN1CCN(c2ccc(N/C=N/O)cc2Cl)CC1 [Compound 68] | 188 to 189 °C | 107 nM
CCN1CCN(c2ccc(N/C=N/O)cc2)CC1 [Compound 72] | 220 to 222 °C | 39.2 nM
CCN1CCN(c2ccc(N/C=N/O)cc2F)CC1 [Compound 73] | 197 to 200 °C | 37.2 nM
CCN1CCN(c2ccc(N/C=N/O)cc2Cl)CC1 [Compound 74] | 207 to 209 °C | 73.2 nM
CCN1CCN(c2ccc(N/C=N/O)cc2Br)CC1 [Compound 75] | 204.5 to 206.5 °C | 154 nM
CCN1CCN(c2ccc(N/C=N/O)cc2C(F)(F)F)CC1 [Compound 77] | 158 to 159 °C | 509 nM
Cl.OCCN1CCN(c2ccc(N/C=N/O)cc2)CC1 [Compound 79] | 170 °C (dec.) | 71.9 nM
Cl.OCCN1CCN(c2ccc(N/C=N/O)cc2F)CC1 [Compound 80] | 180 to 182 °C (dec.) | 45.4 nM
Cl.OCCN1CCN(c2ccc(N/C=N/O)cc2Cl)CC1 [Compound 81] | 200 to 202 °C (dec.) | 23.3 nM
OCCN1CCN(c2ccc(N/C=N/O)cc2Br)CC1 [Compound 82] | 190 to 192 °C (dec.) | 44 nM
CN(C)CCN1CCN(c2ccc(N/C=N/O)cc2)CC1.Cl [Compound 86] | 188 to 190 °C (dec.) | 962 nM
Cl.O/N=C/Nc1ccc(N2CCN(CCN3CCCC3)CC2)c(F)c1 [Compound 93] | 205 °C (dec.) | 135 nM
Cl.O/N=C/Nc1ccc(N2CCN(CCN3CCCC3)CC2)c(Cl)c1 [Compound 94] | 161 to 163 °C | 222 nM
O/N=C/Nc1ccc(N2CCN(CCN3CCCC3)CC2)c(Br)c1 [Compound 95] | 163 to 165 °C | 75.8 nM
Cl.O/N=C/Nc1ccc(N2CCN(CCN3CCCC3)CC2)c(C(F)(F)F)c1 [Compound 96] | 229 to 231 °C (dec.) | 1530 nM
Cc1cc(N2CCN(CCN3CCCC3)CC2)ccc1N/C=N/O.Cl [Compound 97] | 196 to 198 °C (dec.) | 758 nM

SMILES | melting point | IC50 [1]
Cl.O=C(CN1CCN(c2ccc(N/C=N/O)cc2)CC1)N1CCOCC1 [Compound 98] | 167 to 169 °C (dec.) | 69 nM
Cl.O=C(CN1CCN(c2ccc(N/C=N/O)cc2Cl)CC1)N1CCOCC1 [Compound 100] | 110 to 114 °C | 36.3 nM
O=C(CN1CCN(c2ccc(N/C=N/O)cc2Br)CC1)N1CCOCC1 [Compound 101] | – | 20.8 nM
O=C(CN1CCN(c2ccc(N/C=N/O)cc2C(F)(F)F)CC1)N1CCOCC1 [Compound 103] | 75 to 77 °C | 21.4 nM
O/N=C/Nc1ccc(N2CCN(C3CCCCC3)CC2)cc1 [Compound 105] | – | 14.8 nM
Cl.O/N=C/Nc1ccc(N2CCN(C3CCCCC3)CC2)c(F)c1 [Compound 106] | 207 °C (dec.) | 105 nM
O/N=C/Nc1ccc(N2CCN(C3CCCCC3)CC2)c(Cl)c1 [Compound 107] | – | 41.9 nM
Cl.O/N=C/Nc1ccc(N2CCN(C3CCCCC3)CC2)c(Br)c1 [Compound 108] | 222 to 223 °C (dec.) | 293 nM
O/N=C/Nc1ccc(N2CCN(C3CCCCC3)CC2)c(C(F)(F)F)c1 [Compound 110] | 93 to 96 °C | 531 nM
Cc1cc(N2CCN(C3CCCCC3)CC2)ccc1N/C=N/O.Cl [Compound 111] | 230 to 232 °C (dec.) | 70.8 nM
COCCN(CCOC)c1ccc(N/C=N/O)cc1Cl [Compound 119] | 95 to 96.5 °C | –
Cl.O/N=C/Nc1ccc(N2CCN(C3CCCCC3)CC2)nc1 [Compound 123] | 224 to 226 °C (dec.) | 90.6 nM
O/N=C/Nc1ccc(N2CCOCC2)nc1 [Compound 127, N-[2-(morpholino)pyridine-5-yl]-N′-hydroxyformamidine] | – | 215 nM
O/N=C/Nc1ccc(N2CCOCC2)nc1 [Compound 128] | 172 to 174 °C | –
CC(=O)N1CCN(c2ccc(N/C=N/O)cn2)CC1 [Compound 129] | 191 to 192 °C (dec.) | 8.3 nM
COc1cc(N2CCOCC2)ccc1N/C=N/O [Compound 130] | 189 to 190 °C (dec.) | 46.1 nM
O/N=C/Nc1ccc(N2CCN(c3ccccn3)CC2)c(Cl)c1 [Compound 131] | 94 to 96 °C | 3.5 nM
OCCC1CCN(c2ccc(N/C=N/O)cn2)CC1 [Compound 132] | 151 to 153 °C | 37.3 nM
COCCN(CCOC)c1ccc(N/C=N/O)cc1 [Compound 133] | 97 to 98 °C | 340 nM
CCOC(=O)C1CCN(c2ccc(N/C=N/O)cc2Cl)CC1 [Compound 134] | 135 to 138 °C (dec.) | 4 nM

Source: US7214714B2, “20-hydroxyeicosatetraenoic acid production inhibitors” (Taisho Pharmaceutical Co. Ltd., priority 2001, dated 2007)
